Assay results from patent US12521373B2, “Use of losartan for the treatment of fibrotic diseases, in particular epidermolysis bullosa” (Crowd Pharma Losartan GmbH & Co. KG, priority 2020, dated 2026).

How the values were obtained:
Format in all cases: in vivo, human
[1] = system: children with moderate to severe RDEB; experiment: Morphometric scoring of finger contractures (little span) in clinical trial; details: second interim analysis, FIG. 12
Protocol: During the ongoing clinical trial described in the preceding examples, an additional novel assessment parameter was added to measure progression of finger contractures: A morphometric scoring instrument that measures the length of the span when spreading fingers as far as possible. In particular, the following parameters were measured: maximal distance of thumb tip and index finger tip (separately for left hand and right hand and the mean value of both hands), also known as 'little span'. In RDEB, disease progression leads to shortening of the span and development of pseudosyndactylies and […] deformities.

RDEB patients = experiment: Clinical trial in RDEB patients, overall outcome; details: second interim analysis, summary
Protocol: In order to check whether beneficial effects could be obtained in human beings, a clinical trial has been performed. In the trial a group of about 30 patients has been selected. Patient enrollment: 28 children with molecularly confirmed diagnosis of moderate to severe RDEB, age 2-16 years (age of 25 months), were enrolled at the EB Center Freiburg. […] Such parameters were measured in the course of the trial.

[2] = system: children with moderate to severe RDEB; experiment: Children's Dermatology Life Quality Index (CDLQI) in clinical trial
Description: In order to check whether beneficial effects could be obtained in human beings, a clinical trial has been performed. In the trial a group of about 30 patients has been selected. Patient enrollment: 28 children with molecularly confirmed diagnosis of moderate to severe RDEB, age 2-16 years (age of 25 months), were enrolled at the EB Center Freiburg. The Children's Dermatology Life Quality Index (CDLQI) was used in addition, since it has a version for young children, age of >4, using cartoon images. It consists of 10 questions regarding how the skin disease has affected the patient's quality of life over the past 1 week, in each of 10 domains, with 4 possible responses graded 0-3 (range of scores 0-30).

[3] = system: children with moderate to severe RDEB; experiment: Wong-Baker FACES Scale for Pain in clinical trial; details: first interim analysis, FIG. 6
Description: In order to check whether beneficial effects could be obtained in human beings, a clinical trial has been performed. In the trial a group of about 30 patients has been selected. Patient enrollment: 28 children with molecularly confirmed diagnosis of moderate to severe RDEB, age 2-16 years (age of 25 months), were enrolled at the EB Center Freiburg. The Wong-Baker FACES Scale for Pain that uses happy or sad faces shown in the score http://wongbakerfaces.org/) is the preferred method of pain reporting by children. This validated tool is widely used to rate pain severity in children with both chronic and acute pain.

[4] = system: children with moderate to severe RDEB; experiment: Safety and tolerability in clinical trial (adverse events, blood pressure, heart function)
Protocol: Furthermore, the proPNB(pg/ml) was also measured on each visit to evaluate for signs of heart failure.

[5] = system: children with moderate to severe RDEB; experiment: Itch Assessment Scale for the Pediatric Burn Patients in clinical trial; details: values at clinical visits after losartan initiation, FIG. 3
Description: In order to check whether beneficial effects could be obtained in human beings, a clinical trial has been performed. In the trial a group of about 30 patients has been selected. Patient enrollment: 28 children with molecularly confirmed diagnosis of moderate to severe RDEB, age 2-16 years (age of 25 months), were enrolled at the EB Center Freiburg. The Itch Assessment Scale for the Pediatric Burn Patients, a validated instrument for assessing skin burns, which are similar to RDEB. The scale is based on the Itch Man Scale developed by Blakeney & Marvin (2000), and was used to evaluate the intensity of itch of the trial participants. […] Values taken at clinical visits were determined.

[6] = system: children with moderate to severe RDEB; experiment: Quality of Life in EB (QOLEB) Questionnaire in clinical trial; details: first interim analysis, FIG. 7
Description: In order to check whether beneficial effects could be obtained in human beings, a clinical trial has been performed. In the trial a group of about 30 patients has been selected. Patient enrollment: 28 children with molecularly confirmed diagnosis of moderate to severe RDEB, age 2-16 years (age of 25 months), were enrolled at the EB Center Freiburg. Although pain and itch scores partly reflect the patients' quality of life, specific scores were used. […] Therefore, children under the age of 10 years included their parents' advice when completing the questionnaires, and children under 8 years of age or unable to read, have the parents completed the questionnaire.

[7] = system: children with moderate to severe RDEB; experiment: Epidermolysis Bullosa Disease Activity and Scarring Index (EBDASI) in clinical trial
Description: In order to check whether beneficial effects could be obtained in human beings, a clinical trial has been performed. In the trial a group of about 30 patients has been selected. Patient enrollment: 28 children with molecularly confirmed diagnosis of moderate to severe RDEB, age 2-16 years (age of 25 months), were enrolled at the EB Center Freiburg. A validated scoring instrument for EB that assesses response to therapy separately from chronic damage. It is therefore suitable for interventional trials. […] It includes an activity and damage component for: 1. skin; 2. scalp; 3. mucous membranes; 4. nails; 5. other epithelialized surfaces (incl. larynx, esophagus, genitourinary), hands-pseudosyndactyly and skin cancer. Statistical values for EBDASI are shown in FIG. 2 when determined at the visits in the clinic.

[8] = system: children with moderate to severe RDEB; experiment: Birmingham Epidermolysis Bullosa Severity Score (BEBS) in clinical trial; details: second interim analysis, baseline (clinic visit 1, day 1) vs clinic visit 5, week 40, FIG. 9
Description: In order to check whether beneficial effects could be obtained in human beings, a clinical trial has been performed. In the trial a group of about 30 patients has been selected. Patient enrollment: 28 children with molecularly confirmed diagnosis of moderate to severe RDEB, age 2-16 years (age of 25 months), were enrolled at the EB Center Freiburg. […] Eleven items are scored: area of damaged skin, involvement of nails, mouth, eyes, larynx and esophagus, scarring of hands, skin cancer, chronic wounds, alopecia and nutritional compromise. The area of damaged skin is allocated 50 points, and the 10 other items 5 points each, giving a maximum score of 100. […] Therefore, an additional EB-specific scoring instrument was used.

[9] = system: CRP, IL6, Serum amyloid A and TNFα; experiment: Serum biomarkers of inflammation in clinical trial; details: over the trial, FIG. 8
Protocol: A blood sample for serum analysis was collected at all clinic visits. The analyses includes TGF levels, and biomarkers of inflammation and fibrosis, such as TNFα, CRP, ferritin, IL6 (FIG. 4) and amyloid. TGFβ and TNFα was analyzed by specific quantitative ELISAs (RayBiotech) at the EB Center Freiburg, while CRP, ferritin, IL6 and amyloid are measured at the central laboratories of the Medical Centers in Freiburg.

[10] = first interim analysis, after 18 patients had completed the study
[11] = second interim analysis, FIG. 10

CCCCc1nc(Cl)c(CO)n1Cc1ccc(-c2ccccc2-c2nnn[nH]2)cc1 [Losartan, 2-Butyl-4-chloro-1-[[2′-(1H-tetrazol-5-yl)[1,1-biphenyl]-4-yl]methyl]-1H-imidazol-5-methanol]
Little span (distance between tip of the thumb and tip of the index finger) [1]: increase
Disease progression (RDEB patients): reduced disease progression
Disease symptoms (RDEB patients): improved disease symptoms
Quality of life score CDLQI ([2]; first interim analysis, FIG. 7): improvement
CDLQI score ([2]; second interim analysis, baseline (clinic visit 1, day 1) vs clinic visit 5, week 40, FIG. 11): amelioration of the quality of life
Pain assessment score [3]: went statistically to a lower level
Ejection fraction (heart's pump function) ([4]; first interim analysis): no differences
Adverse events related to the Losartan treatment [4, 10]: no adverse events had been observed
Overall safety and tolerability of treatment [4, 10]: safe and well tolerated
proPNB, signs of heart failure ([4]; measured on each visit): no significant changes
Impact on the blood pressure ([4]; normotensive patients, dosage regimen as disclosed): without negative impact
Number of adverse events possibly related to trial medication (pruritus, not serious) ([4]; second interim analysis): 1
Safety of treatment ([4]; second interim analysis): safe
Itch score [5]: a reduction of itch
Quality of life score QoLEB [6]: improvement
EBDASI score ([7]; during treatment, clinic visit 1 to clinic visit 5, FIG. 2): improved substantially
EBDASI activity score ([7]; first interim analysis, FIG. 7): improved
EBDASI damage score ([7]; first interim analysis, FIG. 7): improved
EBDASI activity score [7, 11]: showed improvement
EBDASI damage score [7, 11]: showed improvement
EBDASI score [7, 11]: significantly improved
EBDASI total score (sum of activity and damage score) [7, 11]: showed improvement
BEBS [8]: improved
CRP [9]: went down
IL6 [9]: went down
Serum amyloid A [9]: went down
TNFα [9]: went down
